Literature values as cited in patent US11646117B2, “Matrix factorization of antibiogram metadata” (priority 2019, dated 2023).
Read-outs that look alike come from different tables or passages of the source.

Test system: Klebsiella pneumoniae (biosample SAMN07265011, strain DHQP1605752_NV)
Settings: for Measurement (MIC): CLSI; for Resistance phenotype: testing standard CLSI

Compound | Measurement (MIC) (laboratory typing method MIC) [µg/mL] | Resistance phenotype | Measurement (MIC) (MIC, platform Agar dilution) [µg/mL] | Measurement (MIC) (MIC, platform Etest) [µg/mL]
O=C(N[C@H](CO)[C@H](O)c1ccc([N+](=O)[O-])cc1)C(Cl)Cl [chloramphenicol] | > 16 | resistant |  | 
CC1(C)S[C@@H]2[C@H](NC(=O)[C@H](N)c3ccccc3)C(=O)N2[C@H]1C(=O)O [ampicillin] | > 32 | resistant |  | 
CO/N=C(\C(=O)N[C@@H]1C(=O)N2C(C(=O)O)=C(CSc3nc(=O)c(=O)[nH]n3C)CS[C@H]12)c1csc(N)n1 [ceftriaxone] | > 32 | resistant |  | 
C[C@H]1[C@H](NC(=O)/C(=N\OC(C)(C)C(=O)O)c2csc(N)n2)C(=O)N1S(=O)(=O)O [aztreonam] | > 64 | resistant |  | 
C[C@@H](O)[C@H]1C(=O)N2C(C(=O)O)=C(S[C@@H]3CN[C@H](CNS(N)(=O)=O)C3)[C@H](C)[C@H]12 [doripenem] | > 8 | resistant |  | 
CC(C)(O/N=C(\C(=O)N[C@@H]1C(=O)N2C(C(=O)[O-])=C(C[n+]3ccccc3)CS[C@H]12)c1csc(N)n1)C(=O)O [ceftazidime] | > 128 | resistant |  | 
gentamicin | > 16 | resistant |  | 
C[C@@H]1O[C@@H]1P(=O)(O)O [fosfomycin] |  |  | 32 | 16
CO[C@@]1(NC(=O)Cc2cccs2)C(=O)N2C(C(=O)O)=C(COC(N)=O)CS[C@@H]21 [cefoxitin] | > 16 | resistant |  | 
C[C@@H](O)[C@H]1C(=O)N2C(C(=O)O)=C(S[C@@H]3CN[C@H](C(=O)N(C)C)C3)[C@H](C)[C@H]12 [meropenem] | > 8 | resistant |  | 
colistin | > 8 |  |  | 
Cc1nnc(SCC2=C(C(=O)O)N3C(=O)[C@@H](NC(=O)Cn4cnnn4)[C@H]3SC2)s1 [cefazolin] | > 8 | resistant |  | 
NCC[C@H](O)C(=O)N[C@@H]1C[C@H](N)[C@@H](O[C@H]2O[C@H](CN)[C@@H](O)[C@H](O)[C@H]2O)[C@H](O)[C@H]1O[C@H]1O[C@H](CO)[C@@H](O)[C@H](N)[C@H]1O [amikacin] | > 64 | resistant |  | 
CO/N=C(\C(=O)N[C@@H]1C(=O)N2C(C(=O)[O-])=C(C[N+]3(C)CCCC3)CS[C@H]12)c1csc(N)n1 [cefepime] | > 32 | resistant |  | 
C[C@@H](O)[C@H]1C(=O)N2C(C(=O)O)=C(S[C@@H]3CN[C@H](C(=O)Nc4cccc(C(=O)O)c4)C3)[C@H](C)[C@H]12 [ertapenem] | > 8 | resistant |  | 
polymyxin B | > 8 |  |  | 
CO/N=C(\C(=O)N[C@@H]1C(=O)N2C(C(=O)O)=C(COC(C)=O)CS[C@H]12)c1csc(N)n1 [cefotaxime] | > 64 | resistant |  | 
CN(C)c1cc(NC(=O)CNC(C)(C)C)c(O)c2c1C[C@H]1C[C@H]3[C@H](N(C)C)C(O)=C(C(N)=O)C(=O)[C@@]3(O)C(O)=C1C2=O [tigecycline] | 4 | intermediate |  | 
NC[C@H]1O[C@H](O[C@H]2[C@H](O)[C@@H](O[C@H]3O[C@H](CO)[C@@H](O)[C@H](N)[C@H]3O)[C@H](N)C[C@@H]2N)[C@H](N)C[C@@H]1O [tobramycin] | > 16 | resistant |  | 
